Here are results for one sequence from US6969590B2, “Use of a polypeptide for treatment of pruritus in animals” (Zengen, Inc., priority 2001, dated 2005).

One test deals with C. albicans. Kind of test: Horse serum-induced germ tube formation of C. albicans. In kind it is cell-based. The settings on record: 10^−6M, 60 minutes at 37° C. As to the method: C. albicans from stationary phase cultures were washed twice with distilled water and suspended in HBSS to a final concentration of 2×10^6/ml. Hyphal growth was induced by addition of 10% inactivated horse serum (GIBCO/BRL, Great Britain) to yeast incubated for 45 minutes at 37° C. with continuous shaking. Horse serum was removed by washing cells twice with HBSS and incubation was continued for 60 minutes at 37° C. in the presence of α-MSH (1-13), α-MSH (6-13) or α-MSH (11-13) at a concentration of 10^−6M with continuous shaking. The percentage of filamentous cells was evaluated under a light microscope with the aid of hemocytometer. Experiments were run in triplicate and at least 200 cells were scored. Photomicrographs were taken with an MC100 camera attached to an Axioskop Zeiss microscope.

The next test has as its system NO2^−. Nature of the test: Nitrite (NO) production by activated N9 microglia. Type of test: cell-based, murine. The settings on record: microglia stimulated with LPS+IFN-γ for 24 hr, micromolar concentrations. As to the method:
The N9 clone of murine microglial cells was obtained by immortalization of embryonic brain cultures with the 3RV retrovirus carrying an activated v-myconcogene. N9 cells were cultured in T-75-cm^2 culture flasks (Corning, Cambridge, Mass.) and maintained at 37° C. in a humidified incubator under 5% CO2 atmosphere in RPMI 1640 supplemented with 2 mM L-glutamine, 50 U/mL penicillin G, 50 μg/mL streptomycin sulfate (GIBCO-BBL, Paisley, UK), and 10% heat-inactivated fetal bovine serum (FBS, Hyclone Lab, Inc., Logan, Utah) until experiments were performed. Cells were used between the first and the tenth passage.
Sub-confluent microglial cells were washed twice with phosphate-buffered saline (PBS) and incubated with trypsin 0.025% and ethylenediaminetetraacetate (EDTA) 0.02% without calcium and magnesium for 3 min. at 37° C. to detach the cells from the culture flask. Cells were then resuspended in medium and incubated in 24-well tissue-culture plates at a concentration of 2×10^5 cells/mL for 16 h in a humidified incubator (37° C., 5% CO2). Growth medium was removed and cell monolayers were stimulated with 10 ng/mL lipopolysaccharide (LPS, from Escherichia coli 055:B5, Sigma Chemical Co., St. Louis, Mo.) plus 1 U/ml, murine IFN-γ (Sigma). To test effects of melanocortin peptides, concentrations (1, 10, 25, 50 and 100 μM) of α-MSH (1-13), α-MSH (11-13), and ACTH (1-24) (Sigma) were dissolved in medium and added to wells 10 min before treatment with LPS+IFN-γ. […] Viability of cells was assessed by trypan blue exclusion for each experimental condition; it was consistently >98%. […]
NO is rapidly oxidized to nitrite (NO2) in culture medium, and nitrite concentration is an indicator of NO production. […] Samples were incubated at room temperature for 10 min and absorbency was measured at 540 nm with the use of a microplate reader. Nitrite concentrations were calculated using a sodium nitrite standard curve.
Effects of melanocortin peptides on cytokine and NO production were evaluated by repeated measures analysis of variance followed by Dunnet's test for specific comparisons. […]

In the next test the test system is TNF-α and iNOS mRNA. Kind of test: Northern blot of TNF-α and iNOS mRNA in activated microglia. Type of test: cell-based, murine. As to the method:
Total cellular RNA was extracted from 10^6 adherent microglial cells plated in six-well tissue culture plates (Corning). Electrophoresis of RNA samples (10 μg/lane) was performed in 1% agarose/2.2 M formaldehyde gels and the gels subsequently blotted onto nylon filters by capillary action and baked for 2 h before prehybridization. The cDNA fragments encoding murine TNF-α and mouse macrophage iNOS were ^32P-labeled using the Ready-To-Go DNA Labeling Kit (Pharmacia, Uppsala, Sweden) before hybridization of nylon filters and autoradiography. Blots were subsequently rehybridized with human glyceraldehyde-3-phosphate dehydrogenase (G-3-PDH) cDNA probe as an internal control (Clontech Laboratories, Inc., Palo Alto, Calif.).

For the sequence SYSMEHFRWGKPV [α-MSH (1-13)], the “reduction in the number of filamentous cells (inhibition of germination)” value with C. albicans was 28-32%. For the same sequence, in the test with NO2^−, the “reduction of production of NO2^−” value is listed as 42%. The “mRNA for TNF-α and iNOS (Northern blot)” value in the test on TNF-α and iNOS mRNA was “inhibition of mRNA transaction for TNF-α and iNOS”.
